The target in test [1] is human αvβ6 (Homo sapiens, UniProt P06756+P18564). In words: AlphaLISA integrin-ligand binding assay. The class given is biochemical. On the set-up: hαV 1 992; hβ6 1 709; made in house; host or cells: Expi293. On the procedure:
In the AlphaLISA integrin assays, we used a HEPES based buffer (25 mM HEPES pH 7.4, 137 mM NaCl, 1 mM MgCl2, 1 mM MnCl2, 2 mM CaCl2, 2.7 mM KCl, and 0.05% Tween-20). Optimal assay conditions were determined with a titration of the reagents for signal noise ratio (S/N), linear range, etc. For the respective integrins, we used the final concentrations described in Supplemental Table S3. Briefly, the testing antibody (8 μL) was added as a 4x (of Final testing concentration) solution in the HEPES buffer described previously into a 384w AlphaPlate (Perkin Elmer #6005350). Then the integrin and ligand were added sequentially as 8x (4 μL each). Plates were sealed and incubated at room temperature for 2 h. Then 4 × acceptor bead solution (8 μL) was added, and the plates were resealed and incubated at RT for 1 h. Finally, 4 × (8 μL) donor beads solution was added in a darkened room and incubated for 45 min at room temperature. Plates were read on the Envision (Perkin Elmer) in AlphaScreen mode within 3 h of donor bead addition.
Supplemental Table S3. integrin AlphaLIS A assay reagents and conditions Human A l phal i sa Inte gri n A ssays: Fi nal Condi ti ons […]
( batch de pe nde nt) anti body A l phaLi sa A cce ptor havb1 1. 4 nM 1. 0 nMα - Fi brone cti n human Fi brone cti n n/a A cce ptor be ads/ Pe rki n 10. 0 ug/ m 10. 0 ug/ m […]
havb3 3. 0 nM 10. […]
Background: Bead proximity is the source of the signal in Alpha formats.

Test [2] deals with T1, CHOK1-α5KO-mαvβ1 cells (Mus musculus, UniProt P09055+P43406).
T1 construct: expressed in transfected cells; host or cells: CHOK1 with endogenous hamster α5 deleted by CRISPR
T1 sequence (P43406 31-1044): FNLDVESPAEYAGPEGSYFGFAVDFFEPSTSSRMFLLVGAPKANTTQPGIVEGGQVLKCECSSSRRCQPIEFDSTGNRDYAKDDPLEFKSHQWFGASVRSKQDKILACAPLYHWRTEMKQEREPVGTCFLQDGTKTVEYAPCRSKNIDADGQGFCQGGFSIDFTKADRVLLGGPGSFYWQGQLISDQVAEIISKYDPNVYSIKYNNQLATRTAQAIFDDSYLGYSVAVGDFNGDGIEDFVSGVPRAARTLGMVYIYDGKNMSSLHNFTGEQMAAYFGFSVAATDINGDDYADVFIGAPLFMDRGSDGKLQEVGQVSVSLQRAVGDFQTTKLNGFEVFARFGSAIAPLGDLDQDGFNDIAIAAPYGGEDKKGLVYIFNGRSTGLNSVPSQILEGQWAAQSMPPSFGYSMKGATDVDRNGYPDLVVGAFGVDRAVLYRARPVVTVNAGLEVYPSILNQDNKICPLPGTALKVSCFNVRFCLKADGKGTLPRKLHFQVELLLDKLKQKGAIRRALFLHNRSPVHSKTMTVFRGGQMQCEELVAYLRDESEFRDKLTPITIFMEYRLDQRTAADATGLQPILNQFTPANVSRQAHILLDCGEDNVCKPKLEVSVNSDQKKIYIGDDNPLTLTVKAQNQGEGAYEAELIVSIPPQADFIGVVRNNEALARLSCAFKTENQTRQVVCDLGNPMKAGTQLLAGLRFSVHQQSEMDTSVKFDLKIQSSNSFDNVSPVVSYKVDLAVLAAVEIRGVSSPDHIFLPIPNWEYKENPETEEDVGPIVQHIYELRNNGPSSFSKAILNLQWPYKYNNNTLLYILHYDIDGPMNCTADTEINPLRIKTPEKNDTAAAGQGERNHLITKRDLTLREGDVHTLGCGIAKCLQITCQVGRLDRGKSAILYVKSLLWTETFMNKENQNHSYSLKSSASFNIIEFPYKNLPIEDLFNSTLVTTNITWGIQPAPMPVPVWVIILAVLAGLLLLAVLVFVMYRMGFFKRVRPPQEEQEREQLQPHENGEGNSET
T1 sequence (P09055 21-798): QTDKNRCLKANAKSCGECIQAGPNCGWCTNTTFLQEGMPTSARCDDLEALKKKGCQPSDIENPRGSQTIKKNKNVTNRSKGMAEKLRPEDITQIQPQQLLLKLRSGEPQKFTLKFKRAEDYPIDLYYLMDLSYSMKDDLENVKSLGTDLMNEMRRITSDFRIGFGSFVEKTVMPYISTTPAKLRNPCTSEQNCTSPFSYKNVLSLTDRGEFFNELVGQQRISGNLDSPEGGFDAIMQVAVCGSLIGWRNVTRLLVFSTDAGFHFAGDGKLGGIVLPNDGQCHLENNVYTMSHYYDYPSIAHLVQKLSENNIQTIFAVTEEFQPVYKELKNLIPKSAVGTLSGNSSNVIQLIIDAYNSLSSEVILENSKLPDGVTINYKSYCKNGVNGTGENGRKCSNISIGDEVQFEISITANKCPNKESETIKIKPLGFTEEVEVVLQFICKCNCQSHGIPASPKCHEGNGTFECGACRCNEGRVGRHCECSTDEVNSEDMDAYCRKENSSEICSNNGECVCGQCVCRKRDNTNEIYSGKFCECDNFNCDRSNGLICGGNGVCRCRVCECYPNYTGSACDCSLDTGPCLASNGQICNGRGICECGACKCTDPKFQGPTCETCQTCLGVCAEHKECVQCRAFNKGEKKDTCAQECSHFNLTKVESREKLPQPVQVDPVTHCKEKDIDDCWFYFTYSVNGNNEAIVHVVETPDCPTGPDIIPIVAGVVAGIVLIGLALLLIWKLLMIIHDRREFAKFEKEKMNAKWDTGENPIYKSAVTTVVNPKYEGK
Description: Cell adhesion assay (Epic) on fibronectin. It counts as cell-based. The settings on record: in words. On the procedure:
For plate preparation, Epic 384-well assay plates (Corning #5040) were washed with OptiMEM (Gibco #31985-070) and coated with murine fibronectin (Abcam #ab92784) at a concentration of 0.1 μg/well for CHO-a5KO-mαvβ1 cells; murine vitronectin (Abcam #ab92727) at 0.075 μg/well for CHO-mαvβ3 cells; or murine vitronectin at 0.125 μg/well for CHO-mαvβ5 (all at a volume of 25 μl/well in OptiMEM), for 1 h. Coating solution was then removed by flicking and plates were washed with OptiMEM and blocked with 25 μl/well of assay buffer [1% Ovalbumin (Sigma #A5503-10G) in OptiMEM containing 1X Pen-Strep (Gibco #15140-148)]. A 5-min baseline reading was taken on a Corning Epic Plate Reader (Model: Epic BT-157900) before removing the assay buffer and adding cells pre-incubated with inhibitors. The Epic plate reader detects cellular mass redistribution (adhesion) on the plate surface as a picometer wavelength shift over time. […] Cells were incubated with the inhibitors for 1 h at RT with gentle rocking, after which 50 μL per well was transferred to the Epic assay plate, and a time course of cell adhesion was monitored for an additional 3 h.

pIC50: −log10 of the molar value. Read-outs that look alike come from different tables or passages of the source.

Chain of human αvβ6 (P06756 31-992): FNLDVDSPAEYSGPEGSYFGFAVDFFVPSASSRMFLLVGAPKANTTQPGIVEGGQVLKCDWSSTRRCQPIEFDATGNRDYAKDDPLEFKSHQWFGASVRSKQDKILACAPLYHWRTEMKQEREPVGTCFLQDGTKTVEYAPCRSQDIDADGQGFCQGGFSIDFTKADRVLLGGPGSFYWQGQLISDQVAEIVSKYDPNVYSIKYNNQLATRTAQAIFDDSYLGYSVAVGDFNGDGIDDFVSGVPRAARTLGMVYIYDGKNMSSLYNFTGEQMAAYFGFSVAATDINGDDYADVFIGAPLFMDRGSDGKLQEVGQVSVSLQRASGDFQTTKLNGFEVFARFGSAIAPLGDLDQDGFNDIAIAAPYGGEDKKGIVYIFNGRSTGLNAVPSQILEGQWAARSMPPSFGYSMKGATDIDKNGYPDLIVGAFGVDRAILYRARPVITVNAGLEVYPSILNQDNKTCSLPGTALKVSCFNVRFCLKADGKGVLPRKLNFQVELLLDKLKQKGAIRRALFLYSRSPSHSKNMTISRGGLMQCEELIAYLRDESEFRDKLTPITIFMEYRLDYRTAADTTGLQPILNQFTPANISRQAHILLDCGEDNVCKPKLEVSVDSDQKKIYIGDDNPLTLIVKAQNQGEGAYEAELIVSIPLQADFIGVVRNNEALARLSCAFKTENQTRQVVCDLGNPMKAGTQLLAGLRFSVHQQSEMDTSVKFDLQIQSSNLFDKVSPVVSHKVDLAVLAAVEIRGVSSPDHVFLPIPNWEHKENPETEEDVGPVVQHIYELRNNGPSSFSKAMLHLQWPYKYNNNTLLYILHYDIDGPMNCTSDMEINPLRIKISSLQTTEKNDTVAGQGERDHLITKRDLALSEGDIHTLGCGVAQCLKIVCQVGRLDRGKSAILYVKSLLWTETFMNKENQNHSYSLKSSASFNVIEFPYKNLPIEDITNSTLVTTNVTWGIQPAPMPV
Chain of human αvβ6 (P18564 22-709): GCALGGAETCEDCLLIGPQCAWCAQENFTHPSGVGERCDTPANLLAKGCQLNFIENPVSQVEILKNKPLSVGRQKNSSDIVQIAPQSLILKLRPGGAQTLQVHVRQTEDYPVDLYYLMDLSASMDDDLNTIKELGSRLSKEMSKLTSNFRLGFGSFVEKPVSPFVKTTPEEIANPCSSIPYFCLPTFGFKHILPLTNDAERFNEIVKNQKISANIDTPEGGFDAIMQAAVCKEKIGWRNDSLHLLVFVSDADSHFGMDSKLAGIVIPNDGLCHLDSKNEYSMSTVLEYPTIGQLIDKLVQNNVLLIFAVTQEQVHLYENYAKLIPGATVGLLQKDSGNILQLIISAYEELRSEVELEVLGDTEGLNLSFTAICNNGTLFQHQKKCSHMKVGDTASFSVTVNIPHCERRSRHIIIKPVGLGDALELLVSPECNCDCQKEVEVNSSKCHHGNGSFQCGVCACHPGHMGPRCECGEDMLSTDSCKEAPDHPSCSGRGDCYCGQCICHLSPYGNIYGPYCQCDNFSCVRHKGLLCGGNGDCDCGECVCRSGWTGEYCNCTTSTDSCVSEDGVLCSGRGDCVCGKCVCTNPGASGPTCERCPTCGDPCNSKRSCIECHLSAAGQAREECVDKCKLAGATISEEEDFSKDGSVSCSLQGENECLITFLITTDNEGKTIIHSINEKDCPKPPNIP

Consider `COc1ccc(C(CC(=O)O)N2CCN(CCCc3ccc4c(n3)NCCC4)C2=O)cn1` (stereo not drawn) [MK-0429], for which the negative-log IC50 (pIC50) (in general, the IC50 on a negative log10 scale, so that one unit is a factor of ten) was 8.42 in test [1] (Fig. 3D, assay optimisation, read-out: IC50 human αvβ6 AlphaLISA) and 9.30 in test [1] (Fig. 4B, read-out: IC50 Human integrin AlphaLISA assays: hαvβ6). Besides, the “Effect on cell adhesion, mouse αvβ1-expressing CHOK1-α5KO cells” value in test [2] is recorded as “potently reduced”.
